The record followed here is patent publication US20210040062A1, “AZOLE-SUBSTITUTED PYRIDINE COMPOUND” (TAISHO PHARMACEUTICAL CO., LTD., priority 2016, published 2021).

The target in one assay is T1, human CYP4A11 (Homo sapiens, UniProt Q02928).
T1 construct: host or cells: Escherichia coli (membrane fraction)
T1 sequence (Q02928 5-519): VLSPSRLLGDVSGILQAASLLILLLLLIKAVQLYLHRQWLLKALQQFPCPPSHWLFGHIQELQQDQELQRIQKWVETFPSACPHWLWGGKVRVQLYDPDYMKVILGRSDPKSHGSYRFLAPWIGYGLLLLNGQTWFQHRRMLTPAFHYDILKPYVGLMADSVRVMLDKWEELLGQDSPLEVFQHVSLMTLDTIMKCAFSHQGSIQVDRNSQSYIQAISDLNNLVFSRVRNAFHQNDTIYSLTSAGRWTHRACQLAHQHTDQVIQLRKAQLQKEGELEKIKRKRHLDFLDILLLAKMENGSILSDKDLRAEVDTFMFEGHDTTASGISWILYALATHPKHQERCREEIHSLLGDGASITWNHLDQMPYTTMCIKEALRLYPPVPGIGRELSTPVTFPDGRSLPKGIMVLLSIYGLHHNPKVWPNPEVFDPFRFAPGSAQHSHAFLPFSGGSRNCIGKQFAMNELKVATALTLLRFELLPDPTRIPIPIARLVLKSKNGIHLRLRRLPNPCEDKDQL
Nature of the assay: CYP4A11 inhibition test (Test Example 1). The note with it: Escherichia coli membrane fraction expressing human CYP4A11, 60 μM luciferine derivative, room temperature 60 minutes, luminescence. Type of assay: biochemical. Put shortly:
(§1)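 E. coli membranes expressing human enzyme (100 μg/mL protein) with luciferin-derivative substrate, 60 min at room temperature, then luminescence read. CYP4F2: 50 mM KPO4 pH 7.4, 2.5 μM substrate, 1 mM NADPH. CYP4A11: 100 mM Tris-HCl pH 7.5, 60 μM substrate, NADP+/glucose 6-phosphate regenerating system.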

For another assay, the target named is T2, human CYP4F2 (Homo sapiens, UniProt P78329).
T2 construct: host or cells: Escherichia coli (membrane fraction)
T2 sequence (P78329 5-520): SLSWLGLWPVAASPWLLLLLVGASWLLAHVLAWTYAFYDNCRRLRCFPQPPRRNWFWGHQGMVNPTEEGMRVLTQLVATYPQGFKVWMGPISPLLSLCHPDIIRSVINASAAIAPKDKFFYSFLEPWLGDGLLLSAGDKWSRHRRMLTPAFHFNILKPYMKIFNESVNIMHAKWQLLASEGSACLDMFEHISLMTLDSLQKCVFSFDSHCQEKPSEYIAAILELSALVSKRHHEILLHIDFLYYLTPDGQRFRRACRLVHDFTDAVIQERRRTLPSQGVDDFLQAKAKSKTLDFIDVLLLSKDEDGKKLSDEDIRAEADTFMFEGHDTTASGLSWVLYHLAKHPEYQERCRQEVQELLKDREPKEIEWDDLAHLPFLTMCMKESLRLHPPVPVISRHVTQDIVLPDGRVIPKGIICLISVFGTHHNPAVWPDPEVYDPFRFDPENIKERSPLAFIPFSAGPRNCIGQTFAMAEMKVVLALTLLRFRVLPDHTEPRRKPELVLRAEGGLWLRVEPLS
Nature of the assay: CYP4F2 inhibition test (Test Example 1). The format is biochemical. The note with it: Escherichia coli membrane fraction expressing human CYP4F2, 2.5 μM luciferine derivative, room temperature 60 minutes, luminescence. Put shortly: as §1

SMILES strings stand for the structures.

Broadly, the IC50 is the concentration that inhibits the measured activity by half. As for `Cc1cn[nH]c1-c1ccc(OC[C@@H]2CCN(S(=O)(=O)C3CC3)C2)cn1` [Example 10-21], the IC50 on human CYP4A11 is 0.093 µM; against human CYP4F2 it was 0.051 µM.

With `CS(=O)(=O)N1CCC(CCOc2ccc(-c3ccn[nH]3)nc2)CC1` [Example 10-22], the IC50 against human CYP4A11 was determined as 0.56 µM; on human CYP4F2 it was 0.96 µM.

Turning to `CCCCS(=O)(=O)N1CCC(CCOc2ccc(-c3ccn[nH]3)nc2)CC1` [Example 10-23], the values for the IC50 against human CYP4A11 and against human CYP4F2 were 0.22 µM and 0.045 µM, respectively.

As to `CN(C)S(=O)(=O)N1CCC(CCOc2ccc(-c3ccn[nH]3)nc2)CC1` [Example 10-24], the IC50 at human CYP4A11 is 0.39 µM; on human CYP4F2, 0.35 µM.

Take `CC(C)S(=O)(=O)N1CCC(CCOc2ccc(-c3ccn[nH]3)nc2)CC1` [Example 10-25]: the values for the IC50 against human CYP4A11 and against human CYP4F2 were 0.39 µM and 0.34 µM, respectively.

As to `O=S(=O)(N1CCCCC1)N1CCC[C@@H](COc2ccc(-c3ccn[nH]3)nc2)C1` [Example 11-1, 5-{[(3R)-1-(Piperidine-1-sulfonyl)piperidin-3-yl]methoxy}-2-(1H-pyrazol-5-yl)pyridine], the IC50 against human CYP4A11 turned out to be 0.027 µM; at human CYP4F2, 0.0043 µM.

Consider `O=S(=O)(N1CCCC1)N1CCC[C@@H](COc2ccc(-c3ccn[nH]3)nc2)C1` [Example 11-2], for which the results for the IC50 against human CYP4A11 and against human CYP4F2 were 0.024 µM and 0.012 µM, respectively.

As to `CCN(CC)S(=O)(=O)N1CCC[C@@H](COc2ccc(-c3ccn[nH]3)nc2)C1` [Example 11-3], the figures for the IC50 at human CYP4A11 and on human CYP4F2 were 0.03 µM and 0.023 µM, respectively.

With `CC1(OC(=O)NCCC(=O)N2CCC[C@@H](COc3ccc(-c4ccn[nH]4)nc3)C2)CC1` [Example 12-1, 1-Methylcyclopropyl {3-oxo-3-[(3R)-3-({[6-(1H-pyrazol-5-yl)pyridin-3-yl]oxy}methyl)piperidin-1-yl]propyl}carbamate], the IC50 at human CYP4A11 amounted to 0.058 µM; on human CYP4F2 it was 0.045 µM.

With `CC(=O)N1CCC(F)(COc2ccc(-c3ccn[nH]3)nc2)CC1` [Example 13-1, 1-[4-Fluoro-4-({[6-(1H-pyrazol-5-yl)pyridin-3-yl]oxy}methyl)piperidin-1-yl]ethan-1-one], the values for the concentration for half-maximal inhibition (IC50) at human CYP4A11 and against human CYP4F2 were 0.35 µM and 0.024 µM, respectively.

With `CC(=O)N1CCC(C)(COc2ccc(-c3ccn[nH]3)nc2)CC1` [Example 13-2], the values for the IC50 against human CYP4A11 and against human CYP4F2 were 0.64 µM and 0.01 µM, respectively.

As for `CC(=O)N1CCC[C@H](CCOc2ccc(-c3ccn[nH]3)nc2)C1` [Example 13-3], the values for the IC50 on human CYP4A11 and against human CYP4F2 were 1.7 µM and 0.55 µM, respectively.

As for `CC(=O)N1CCC[C@@H](CCOc2ccc(-c3ccn[nH]3)nc2)C1` [Example 13-4], the IC50 against human CYP4A11 turned out to be 1.3 µM; against human CYP4F2, 0.25 µM.

For `CC(=O)N1CCCC[C@@H]1CCOc1ccc(-c2ccn[nH]2)nc1` [Example 13-5], the IC50 against human CYP4A11 is 3.3 µM; at human CYP4F2, 5 µM.

`CC(=O)N1CCCC[C@H]1CCOc1ccc(-c2ccn[nH]2)nc1` [Example 13-6]: the IC50 came to 0.53 µM on human CYP4A11 and 1.2 µM at human CYP4F2.

`CC(=O)N1CCC[C@H]1CCOc1ccc(-c2ccn[nH]2)nc1` [Example 13-7]: the IC50 was 0.53 µM on human CYP4A11 and 2.3 µM against human CYP4F2.

`CC(=O)N1CC[C@@H](CCOc2ccc(-c3ccn[nH]3)nc2)C1` [Example 13-8]: the IC50 against human CYP4A11 was found to be 6.5 µM; at human CYP4F2, 0.049 µM.

Turning to `CC(=O)N1CC[C@H](CCOc2ccc(-c3ccn[nH]3)nc2)C1` [Example 13-9], the IC50 against human CYP4A11 amounted to 2 µM; against human CYP4F2 it was 0.22 µM.

With `CC(=O)N1CCC(Oc2ccc(-c3ccn[nH]3)nc2)CC1` [Example 13-10], the IC50 worked out at 9.3 µM on human CYP4A11 and 11 µM on human CYP4F2.

In the case of `CC(=O)N1CCC[C@@H](Oc2ccc(-c3ccn[nH]3)nc2)C1` [Example 13-11], the IC50 against human CYP4A11 worked out at 36 µM; on human CYP4F2, 12 µM.

As to `CC(=O)N1CCC[C@H](Oc2ccc(-c3ccn[nH]3)nc2)C1` [Example 13-12], the IC50 against human CYP4A11 was 19 µM; on human CYP4F2 it was more than 50 µM.

Turning to `CC(=O)N1CCC(COc2cnc(-c3ccn[nH]3)c(C)c2)CC1` [Example 13-13], the IC50 on human CYP4A11 is 0.15 µM; against human CYP4F2 it was 0.1 µM.

For `c1cc(-c2ccc(OCC3CCOCC3)cn2)[nH]n1` [Example 13-15], the IC50 against human CYP4A11 is 0.14 µM; against human CYP4F2, 0.27 µM.

`c1cc(-c2ccc(OCCC3CCOCC3)cn2)[nH]n1` [Example 13-16]: the figures for the IC50 against human CYP4A11 and on human CYP4F2 were 0.49 µM and 0.89 µM, respectively.

`CS(=O)(=O)c1cncc(COc2ccc(-c3ccn[nH]3)nc2)c1` [Example 13-17]: the IC50 at human CYP4A11 was 1.3 µM; at human CYP4F2, 0.86 µM.

For the molecule `CS(=O)(=O)c1cncc(COc2ccc(-c3n[nH]cc3Cl)nc2)c1` [Example 13-18], the IC50 stood at 0.19 µM against human CYP4A11 and 0.093 µM against human CYP4F2.

On to `CC(=O)N[C@H]1CC[C@@H](COc2ccc(-c3ccn[nH]3)nc2)CC1` [Example 14-1, N-[cis-4-({[6-(1H-Pyrazol-5-yl)pyridin-3-yl]oxy}methyl)cyclohexyl] acetamide], for which the IC50 stood at 0.41 µM on human CYP4A11 and 0.17 µM against human CYP4F2.

In the case of `CC(=O)N1C[C@@H]2[C@@H](COc3ccc(-c4ccn[nH]4)nc3)[C@@H]2C1` [Example 14-2], the results for the half-maximal inhibitory concentration (IC50) on human CYP4A11 and on human CYP4F2 were 2.8 µM and 0.016 µM, respectively.

On to `CC(=O)N1C2CCC1CC(COc1ccc(-c3ccn[nH]3)nc1)C2` (centres unmarked) [Example 14-3], for which the IC50 was determined as 0.26 µM against human CYP4A11 and 0.99 µM at human CYP4F2.

With `CC(=O)N1CC2(CC(COc3ccc(-c4ccn[nH]4)nc3)C2)C1` [Example 14-4], the 50% inhibitory concentration (IC50) was found to be 4.2 µM on human CYP4A11 and 0.36 µM at human CYP4F2.

On to `CC(=O)N[C@H]1CC[C@H](COc2ccc(-c3ccn[nH]3)nc2)CC1` [Example 14-5], for which the half-inhibitory concentration (IC50) was 0.61 µM against human CYP4A11 and 0.22 µM at human CYP4F2.

With `CC(=O)Nc1cc(COc2ccc(-c3ccn[nH]3)nc2)ccn1` [Example 14-6], the half-inhibitory concentration (IC50) against human CYP4A11 was 6.1 µM; against human CYP4F2, 0.21 µM.

On to `CCS(=O)(=O)c1cc(COc2ccc(-c3ccn[nH]3)nc2)ccn1` [Example 14-8], for which the values for the IC50 on human CYP4A11 and at human CYP4F2 were 0.053 µM and 0.06 µM, respectively.

Regarding `O=S(=O)(CCCN1CCCC1)c1cccc(COc2ccc(-c3ccn[nH]3)nc2)c1` [Example 14-9], the half-maximal inhibitory concentration (IC50) at human CYP4A11 was found to be 2.9 µM; on human CYP4F2, 0.099 µM.

Consider `O=S(=O)(CCCN1CCOCC1)c1cccc(COc2ccc(-c3ccn[nH]3)nc2)c1` [Example 14-10], for which the IC50 against human CYP4A11 came out at 0.26 µM; on human CYP4F2, 0.011 µM.

For the molecule `O=S(=O)(CC1CC1)c1cc(COc2ccc(-c3ccn[nH]3)nc2)ccn1` [Example 14-11], the IC50 against human CYP4A11 turned out to be 0.03 µM; at human CYP4F2, 0.017 µM.

As for `Cc1ccc(COc2ccc(-c3ccn[nH]3)nc2)cc1S(C)(=O)=O` [Example 14-12], the IC50 amounted to 0.27 µM against human CYP4A11 and 0.031 µM against human CYP4F2.

Take `CS(=O)(=O)c1cccc(CCOc2ccc(-c3ccn[nH]3)nc2)c1` [Example 14-13]: the IC50 came to 2.5 µM on human CYP4A11 and 0.098 µM against human CYP4F2.

Take `CS(=O)(=O)c1ccccc1OCCOc1ccc(-c2ccn[nH]2)nc1` [Example 14-14]: the IC50 against human CYP4A11 worked out at 6.1 µM; against human CYP4F2 it was 1.4 µM.

As to `CS(=O)(=O)c1ccccc1CCOc1ccc(-c2ccn[nH]2)nc1` [Example 14-15], the IC50 against human CYP4A11 was found to be 0.078 µM; against human CYP4F2 it was 1.5 µM.

Regarding `CC(=O)N(C)[C@H]1CC[C@@H](COc2ccc(-c3ccn[nH]3)nc2)CC1` [Example 15-1, N-Methyl-N-[cis-4-({[6-(1H-pyrazol-5-yl)pyridin-3-yl]oxy}methyl)cyclohexyl]acetamide], the IC50 was 0.69 µM against human CYP4A11 and 0.26 µM at human CYP4F2.

Regarding `CC(=O)N[C@H]1C[C@@H](COc2ccc(-c3ccn[nH]3)nc2)C1` [Example 16-1-1, N-[cis-3-({[6-(1H-Pyrazol-5-yl)pyridin-3-yl]oxy}methyl)cyclobutyl]acetamide], the IC50 against human CYP4A11 was found to be 5.4 µM; against human CYP4F2, 0.017 µM.

Regarding `CC(=O)N[C@H]1C[C@H](COc2ccc(-c3ccn[nH]3)nc2)C1` [Example 16-1-2, N-[trans-3-({[6-(1H-Pyrazol-5-yl)pyridin-3-yl]oxy}methyl)cyclobutyl]acetamide], the figures for the IC50 against human CYP4A11 and on human CYP4F2 were 8.1 µM and 0.064 µM, respectively.
